Literature values, collected in patent US10525009B2, “Formulations of 6-mercaptopurine” (Hadasit Medical Research Services and Development Ltd., priority 2004, dated 2020).

fraction of an oral dose absorbed: Approximately 50%
SMILES: Sc1ncnc2nc[nH]c12 [6-MP, 6-mercaptopurine]
